Assay results from US4123552A, “Compositions for preserving crops and animal feedstuffs” (Chevron Research Company, priority 1975, dated 1978).
≈ marks a conversion by molar mass, not a printed value.

Key:
[1] = tested on: All Species; test: Control of seed- and soil-borne pathogens during storage of corn seeds (Table IV), all species; assay type: cell-based, Rhizopus, Penicillium, Fusarium; conditions: relative to untreated check
Method: A variety of bis-esters was tested for the control of seed- and soil-borne pathogens during storage of corn seeds (Zea mays) by the following procedure.
(§1) A small amount of acetone was added to the bis-ester to make specific volume, plus a small portion of emulsifier making it into a slurry. This preparation was diluted with water to the desired concentration. Solution was then evenly distributed on the wall of a glass jar. High moisture feedcorn with natural infection was stored frozen after harvest until used for this test. The corn seeds were rolled in the jar until they were coated and the solution was completely absorbed on them.
(§2) Following the treatment, the corn seeds were plated on Potato Dextrose Agar plates. For comparison, untreated corn seeds were also plated. Propionic acid was also tested for comparison.
The percentage control of all species was based on the total sum average of mycelial growth in millimeters of all species in the treated seeds relative to the untreated check. The fast growing Rhizopus was evaluated 7 days after treatment, the other fungi after 14 days.

[2] = tested on: Rhizopus sp.; test: Concentration for 90% control of pathogen on corn seeds (Table V), Rhizopus sp.; assay type: cell-based; conditions: 5 days after treatment
Method: as §1, §2
(§3) A variety of bis-esters was tested for the control of seed- and soil-borne pathogens during the storage of corn seeds (Zea mays) by the procedure of Example 11. For comparison, propionic acid was also tested.
(§4) Control of each pathogen was determined by mycelial growth in millimeters in the treated seeds relative to untreated seeds. Mycelial growth of Rhizopus species and Fusarium species was evaluated 5 days after treatment. Mycelial growth in Aspergillus niger was evaluated 14 days after treatment.
(§5) The bis-ester tested and the concentration of active ingredient in ounces per 100 lbs. of corn seeds for 90 percent control of each pathogen species are tabulated in Table V.

[3] = tested on: Fusarium sp.; test: Concentration for 90% control of pathogen on corn seeds (Table V), Fusarium sp.; assay type: cell-based; conditions: 5 days after treatment
Method: as §1, §2, §3, §4, §5

[4] = tested on: Aspergillus niger; test: Concentration for 90% control of pathogen on corn seeds (Table V), Aspergillus niger; assay type: cell-based; conditions: 14 days after treatment; for Conc. for 90% Control, Aspergillus niger: corn seeds
Method: as §1, §2, §3, §4, §5

[5] = tested on: high moisture corn; test: Preservation of high moisture corn in ventilated cans (time until temperature exceeds room temperature); conditions: for Weeks Effective: corn 25 percent moisture, 70-72 F
Method: High moisture corn (25 percent moisture) was treated with various methylene and polyoxymethylene esters of propionic or acetic acid of various dosages. The esters were applied to the corn in a mixer for one minute at 32 RPM. Three replicate two gallon ventilated cans were filled with the treated corn. The cans were then held at a temperature of 70°-72° F. Temperature readings were taken semi-weekly by means of thermocouples in the center of each can. When the temperature exceeded constant room temperature for at least an 8-hour period the treatment was considered broken.

[6] = tested on: fungal growth; test: Visual fungal growth rating on treated crops in ventilated cans; set-up: key: 1 = no growth, 10 = heavy uniform growth; conditions: 1-10 basis
Method: Methylene bispropionate was applied to a variety of crops at various dosages by spraying or in a mixer. Two ventilated cans were filled with each treated crop. The cans were then maintained at 70° F. ±5° F. Each can was periodically visually observed for fungal growth and the observations were translated into a growth rating on a 1-10 basis; 1 indicating no growth and 10 indicating heavy uniform growth. For comparison, two samples of each untreated crop were also tested. The crops employed, the percent weight methylene bispropionate (MBP) based on weight crop, and the fungal rating 2, 7-8 and 28-29 days after treatment are tabulated in Table III.

[7] = Acute oral toxicity in white rats; conditions: rat, in vivo
From the text: Methylene bispropionate was subjected to acute oral toxicity studies using white rats.

[8] = tested on: Candida albicans; test: Antimicrobial activity of MBP on nutrient agar, Candida albicans; assay type: cell-based; conditions: read-out: Germistatic Concentration of MBP
Method: (§6) Microbiological tests were conducted to determine the antimicrobial activity of methylene bispropionate (MBP). The minimum concentration of MBP, capable of inhibiting the growth of five species of bacteria, two species of mold and one species of yeast was determined. Petri plates containing nutrient agar and various concentrations of MBP were inoculated with each of the test species. The identification of these organisms and the effective concentration of MBP inhibiting growth are shown below: […]

[9] = tested on: Staphylococcus aureus; test: Antimicrobial activity of MBP on nutrient agar, Staphylococcus aureus; assay type: cell-based; conditions: read-out: Germistatic Concentration of MBP
Method: as §6

[10] = tested on: Escherichia coli; test: Antimicrobial activity of MBP on nutrient agar, Escherichia coli; assay type: cell-based; conditions: read-out: Germistatic Concentration of MBP
Method: as §6

[11] = tested on: Streptococcus pyogenes; test: Antimicrobial activity of MBP on nutrient agar, Streptococcus pyogenes; assay type: cell-based; conditions: read-out: Germistatic Concentration of MBP
Method: as §6

[12] = tested on: Aspergillus niger; test: Antimicrobial activity of MBP on nutrient agar, Aspergillus niger; assay type: cell-based; conditions: read-out: Germistatic Concentration of MBP
Method: as §6

[13] = tested on: Trichophyton interdigitale; test: Antimicrobial activity of MBP on nutrient agar, Trichophyton interdigitale; assay type: cell-based; conditions: read-out: Germistatic Concentration of MBP
Method: as §6

[14] = tested on: Pseudomonas aeruginosa; test: Antimicrobial activity of MBP on nutrient agar, Pseudomonas aeruginosa; assay type: cell-based; conditions: read-out: Germistatic Concentration of MBP
Method: as §6

[15] = tested on: Bacillus subtilis; test: Antimicrobial activity of MBP on nutrient agar, Bacillus subtilis; assay type: cell-based; conditions: read-out: Germistatic Concentration of MBP
Method: as §6

[16] = Solubility of insecticides in methylene bispropionate; assay type: physicochemical; conditions: solvent methylene bispropionate
Method: Methylene bispropionate was tested as a solvent for various insecticides. […] O,S-dimethylN-acetyl phosphoramidothioate was soluble in methylene bispropionate to the extent of 5 percent by weight. Chlordane was soluble in methylene bispropionate to the extent of at least 75 percent by weight.

Compound: CC(C)C(=O)OCOCOC(=O)C(C)C [Oxybismethylene Bisisobutyrate]
- % Control All Species ([1]; 1.0 Oz./100 Lbs.): 73%
- % Control All Species ([1]; 2.5 Oz./100 Lbs.): 87%
- % Control All Species ([1]; 6.4 Oz./100 Lbs.): 100%
- % Control All Species ([1]; 16 Oz./100 Lbs.): 100%
- Conc. for 90% Control, Rhizopus sp. [2]: 1.2 oz./100 lbs.
- Conc. for 90% Control, Fusarium sp. [3]: 0.88 oz./100 lbs.
- Conc. for 90% Control, Aspergillus niger [4]: 0.88 oz./100 lbs.

Compound: CCC(=O)OCOC(=O)CC [Methylene Bispropionate]
- Weeks Effective ([5]; 3 Oz/Bu): > 12 Weeks
- Weeks Effective ([5]; 6 Oz/Bu): > 12 Weeks
- effectiveness in preservation of high moisture corn (in words) ([5]; from Table II): remarkably superior to propionic acid in the preservation of high moisture corn
- Fungal Rating ([6]; Hay (4" seedlings), […] Wt MBP, 7-8 days): 0
- Fungal Rating ([6]; Hay (4" seedlings), […] Wt MBP, 28-29 days): 4
- Fungal Rating ([6]; Hay (4" seedlings), […] Wt MBP, 2 days): 0
- Fungal Rating ([6]; Sorghum (33% H2 O), 0.51 % Wt MBP, 7-8 days): 0
- Fungal Rating ([6]; Sorghum (33% H2 O), 0.51 % Wt MBP, 28-29 days): 0
- Fungal Rating ([6]; Sorghum (33% H2 O), 0.51 % Wt MBP, 2 days): 0
- Fungal Rating ([6]; Soybeans (26% H2 O), 0.51 % Wt MBP, 7-8 days): 0
- Fungal Rating ([6]; Soybeans (26% H2 O), 0.51 % Wt MBP, 28-29 days): 0
- Fungal Rating ([6]; Soybeans (26% H2 O), 0.51 % Wt MBP, 2 days): 0
- Fungal Rating ([6]; Wheat (26% H2 O), 0.6 % Wt MBP, 7-8 days): 0
- Fungal Rating ([6]; Wheat (26% H2 O), 0.6 % Wt MBP, 28-29 days): 0
- Fungal Rating ([6]; Wheat (26% H2 O), 0.6 % Wt MBP, 2 days): 0
- Fungal Rating ([6]; Wood Chips (freshly cut), 1.4 % Wt MBP, 7-8 days): 0
- Fungal Rating ([6]; Wood Chips (freshly cut), 1.4 % Wt MBP, 28-29 days): 0
- Fungal Rating ([6]; Wood Chips (freshly cut), 1.4 % Wt MBP, 2 days): 0
- % Control All Species ([1]; 1.0 Oz./100 Lbs.): 97%
- % Control All Species ([1]; 2.5 Oz./100 Lbs.): 100%
- % Control All Species ([1]; 6.4 Oz./100 Lbs.): 100%
- % Control All Species ([1]; 16 Oz./100 Lbs.): 100%
- Conc. for 90% Control, Rhizopus sp. [2]: 0.85 oz./100 lbs.
- Conc. for 90% Control, Fusarium sp. [3]: 0.5 oz./100 lbs.
- inhibition of growth at 0.16 oz/100 lb ([4]; Aspergillus niger, 336 h, 0.16 oz./100 lbs.): 99%
- Conc. for 90% Control, Aspergillus niger [4]: 0.16 oz./100 lbs.
- LD50 [7]: 2800 mg/kg
- MIC [8]: 1000 µg/mL (≈ 6.24 mM)
- MIC [9]: 1000 µg/mL (≈ 6.24 mM)
- MIC [10]: 6000 µg/mL (≈ 37.5 mM)
- MIC [11]: 700 µg/mL (≈ 4.37 mM)
- MIC [12]: 800 µg/mL (≈ 4.99 mM)
- MIC [13]: 800 µg/mL (≈ 4.99 mM)
- MIC [14]: 7000 µg/mL (≈ 43.7 mM)
- MIC [15]: 8000 µg/mL (≈ 49.9 mM)

Compound: CC(=O)OCOC(C)=O [Methylene Bisacetate]
- Weeks Effective ([5]; 3 Oz/Bu): 6 Weeks
- Weeks Effective ([5]; 6 Oz/Bu): > 12 Weeks

Compound: CC(=O)OC(C)OC(C)=O [Ethylidene Bisacetate]
- % Control All Species ([1]; 1.0 Oz./100 Lbs.): 60%
- % Control All Species ([1]; 2.5 Oz./100 Lbs.): 87%
- % Control All Species ([1]; 6.4 Oz./100 Lbs.): 93%
- % Control All Species ([1]; 16 Oz./100 Lbs.): 100%

Compound: ClC1=C(Cl)C2(Cl)C3C(Cl)C(Cl)CC3C1(Cl)C2(Cl)Cl (centres unmarked) [Chlordane]
- solubility in methylene bispropionate [16]: at least 75 percent by weight

Compound: CCC(=O)OC(C)OC(=O)CC [Ethylidene Bispropionate]
- % Control All Species ([1]; 1.0 Oz./100 Lbs.): 44%
- % Control All Species ([1]; 2.5 Oz./100 Lbs.): 50%
- % Control All Species ([1]; 6.4 Oz./100 Lbs.): 83%
- % Control All Species ([1]; 16 Oz./100 Lbs.): 91%

Compound: CCC(=O)O [Propionic acid, reference compound]
- Weeks Effective ([5]; 2 Oz/Bu): 6 Weeks
- Weeks Effective ([5]; 3 Oz/Bu): 6 Weeks
- Weeks Effective ([5]; 4 Oz/Bu): > 12 Weeks
- Weeks Effective ([5]; 6 Oz/Bu): > 12 Weeks
- % Control All Species ([1]; 1.0 Oz./100 Lbs.): 28%
- % Control All Species ([1]; 2.5 Oz./100 Lbs.): 60%
- % Control All Species ([1]; 6.4 Oz./100 Lbs.): 99%
- % Control All Species ([1]; 16 Oz./100 Lbs.): 99%
- Conc. for 90% Control, Rhizopus sp. [2]: 3.8 oz./100 lbs.
- Conc. for 90% Control, Fusarium sp. [3]: 9.6 oz./100 lbs.
- Conc. for 90% Control, Aspergillus niger [4]: 3.4 oz./100 lbs.

Compound: COP(=O)(NC(C)=O)SC (centres unmarked) [O,S-dimethylN-acetyl phosphoramidothioate]
- solubility in methylene bispropionate [16]: 5 percent by weight
